Assay [1] deals with S. cerevisiae AD1002 (CDR1+). Nature of the assay: Disk drug susceptibility assay, AD1002 compared with parental strain. Type of assay: cell-based. The note with it: drug on filter disks, 30° C., 48 h. Here is the method: (§1) S. cerevisiae AD1-8u^− (CDR1−) or AD1002 (CDR1+) cells (5×10^5) seeded in top agar on CSM agar plates (containing uracil for AD1-8u^−) were exposed to drugs or chemicals applied to filter disks and incubated at 30° C. for 48 h. The sensitivity of AD1002 to drugs or chemicals was unaffected by supplementing the medium with uridine (0.02% w/v). Amounts of individual drugs applied to disks are given in the Materials and methods section of Example 2, below.
(§2) Drug susceptibility was measured using disk assays on CSM-URA plates (containing 1.5% w/v agar). Plates were seeded with yeast cells suspended in top agar (5 ml, 10^5 cells/ml). For the uracil-dependent parental strain, agar was supplemented with 0.02% uridine. Five microliters of drug solution or solvent control were spotted onto sterile Whatman paper disks on the top agar. The following amounts (nmoles) of drugs were applied to individual disks: fluconazole, 6.5 (Pfizer Ltd., Sandwich, Kent, United Kingdom); ketoconazole, 0.094 (Janssen Research Foundation, Beerse, Belgium); itraconazole, 0.35 (Janssen); miconazole, 0.084 (Janssen); amphotericin B, 54 (E. R. Squibb & Sons, Princeton, N.J.); rhodamine 6G, 10 (Sigma, Penrose, Auckland, N. Z.); rhodamine 123, 50 (Sigma); trifluoperazine 100 (Sigma); benomyl, 10 (Nippon Roche); cycloheximide, 5 (Sigma); carbonyl cyanide p-chlorophenylhydrazone, 490 (CCCP, Sigma); oligomycin, 10 (Sigma); nigericin, 100 (Sigma); tamoxifen, 25 (Sigma); naftifine, 50 (Novartis); quinidine, 500 (Sigma); valinomycin, 20 (Sigma); verapamil, 1000 (Sigma). Agar plates were incubated at 30° C. for 48 h or until clear growth inhibition zones were visible.

For assay [2], the system named is AD-PDR5 (Pdr5p). Nature of the assay: Disk diffusion assay, AD-PDR5. Type of assay: cell-based, S. cerevisiae. The note with it: AD-pABC as negative control, 30° C., 48 h. Here is the method: (§3) The cells were spread on CSM-agar plates and exposed to the drugs or chemicals applied to filter disks and incubated at 30° C. for 48 h. The amounts of individual drugs are given in the Materials and Methods section of Example 3. Rhodamine 6G and rhodamine 123 were dissolved in ethanol and the other antifungals were dissolved in DMSO.
(§4) Drug susceptibility was measured using disk assays on CSM-URA plates (containing 1.5% w/v agar). Yeast cells (200 μl ml of 5×10^6 cells/ml) were spread on the plates. 10 μl of drug solution or solvent control were spotted onto sterile Whatman paper disks on the pre-spread plates. The following amounts (nmoles) of drugs were applied to individual disks: fluconazole, 633 (Pfizer Ltd., Sandwich, Kent, United Kingdom); itraconazole, 0.23 (Janssen); miconazole, 0.42 (Janssen); cycloheximide, 0.71 (Sigma); rhodamine 6G, 100 (Sigma, Penrose, Auckland, N. Z.); rhodamine 123, 125 (Sigma); cerulenin 4.5 (Sigma); 5-flucytosine 100 (Sigma); amphotericin B, 97 (E. R. Squibb & Sons, Princeton, N.J.); nystatin 65 (Sigma). Agar plates were incubated at 30° C. for 48 h or until clear growth inhibition zones were visible.

The test system of assay [3] is AD-CDR1 (Cdr1p). Nature of the assay: Disk diffusion assay, AD-CDR1. Type of assay: cell-based, S. cerevisiae. The note with it: AD-pABC as negative control, 30° C., 48 h. How it is done:
as §3, §4

The target of assay [4] is T1, Cdr1p ATPase (Candida albicans, UniProt P43071, E1416A/I916V/K1177E/L1021S/Q214E/T842S/Y427F).
T1 construct: expressed in transfected cells; host or cells: S. cerevisiae AD1-8u- with pKEN1002 integrated at the PDR5 locus (strain AD1002), plasma membrane fraction
T1 sequence (P43071 whole entry Q214E/Y427F/T842S/I916V/L1021S/K1177E/E1416A): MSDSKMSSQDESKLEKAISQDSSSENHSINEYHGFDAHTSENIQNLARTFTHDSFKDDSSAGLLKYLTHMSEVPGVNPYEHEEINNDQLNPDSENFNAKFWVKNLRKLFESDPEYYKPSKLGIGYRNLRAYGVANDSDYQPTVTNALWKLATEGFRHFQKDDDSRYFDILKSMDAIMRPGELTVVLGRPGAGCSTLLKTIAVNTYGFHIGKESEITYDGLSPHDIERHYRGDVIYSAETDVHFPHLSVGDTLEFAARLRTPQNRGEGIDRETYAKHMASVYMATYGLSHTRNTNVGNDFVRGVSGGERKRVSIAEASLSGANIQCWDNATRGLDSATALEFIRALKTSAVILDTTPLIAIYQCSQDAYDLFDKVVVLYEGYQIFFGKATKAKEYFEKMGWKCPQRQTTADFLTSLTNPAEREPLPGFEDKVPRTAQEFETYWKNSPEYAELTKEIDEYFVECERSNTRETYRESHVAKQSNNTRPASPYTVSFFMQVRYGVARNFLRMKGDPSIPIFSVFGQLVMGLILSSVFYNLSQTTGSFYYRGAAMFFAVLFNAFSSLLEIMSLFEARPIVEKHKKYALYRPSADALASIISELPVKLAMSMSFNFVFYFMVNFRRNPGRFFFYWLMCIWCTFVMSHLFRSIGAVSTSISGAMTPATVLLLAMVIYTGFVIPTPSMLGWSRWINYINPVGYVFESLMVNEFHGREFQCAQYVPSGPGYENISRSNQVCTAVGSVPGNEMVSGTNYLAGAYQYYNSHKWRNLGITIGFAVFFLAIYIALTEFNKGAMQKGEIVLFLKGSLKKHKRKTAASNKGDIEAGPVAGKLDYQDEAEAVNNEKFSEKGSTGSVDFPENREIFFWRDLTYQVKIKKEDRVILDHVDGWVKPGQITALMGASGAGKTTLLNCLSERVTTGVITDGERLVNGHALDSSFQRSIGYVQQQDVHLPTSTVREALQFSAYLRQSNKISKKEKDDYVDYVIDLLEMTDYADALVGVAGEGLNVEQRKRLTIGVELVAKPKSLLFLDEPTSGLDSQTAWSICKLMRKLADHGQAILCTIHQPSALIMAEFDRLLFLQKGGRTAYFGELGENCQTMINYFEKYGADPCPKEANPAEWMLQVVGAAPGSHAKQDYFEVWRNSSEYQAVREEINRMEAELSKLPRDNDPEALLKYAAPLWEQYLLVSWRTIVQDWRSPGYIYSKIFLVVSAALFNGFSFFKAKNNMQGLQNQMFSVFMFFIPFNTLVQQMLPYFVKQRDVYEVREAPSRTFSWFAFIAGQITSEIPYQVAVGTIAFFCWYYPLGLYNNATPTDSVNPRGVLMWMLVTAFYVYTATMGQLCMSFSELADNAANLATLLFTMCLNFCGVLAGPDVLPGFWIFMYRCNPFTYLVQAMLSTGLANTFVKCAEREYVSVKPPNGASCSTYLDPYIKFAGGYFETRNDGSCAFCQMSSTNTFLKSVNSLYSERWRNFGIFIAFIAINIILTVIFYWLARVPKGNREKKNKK
Nature of the assay: Oligomycin sensitive ATPase/NTPase activity of AD1002 plasma membranes. Type of assay: biochemical, C. albicans. How it is done:
Membrane fractions were isolated from S. cerevisiae AD1002 (▪) or parental AD1-8u^− cells (●). ATPase assays were carried out at 30° C. for 30 min, as described in Materials and methods for Example 2. The oligomycin-sensitive activity was determined as the difference in ATPase activity in the presence and absence of 20 μM oligomycin. […] The results are the means (+/−SD) of four determinations carried out on two membrane preparations.
(B) Inhibition profile with KN20 on the oligomycin-sensitive Cdr1p ATPase activity of plasma membranes from AD1002 minus the oligomycin-sensitive ATPase activity of plasma membranes from the isogenic AD1-8u^− strain.
Yeast were grown in YEPD, pH 5.5 at 30° C. until they reached late-exponential phase of growth (OD600 nm=7), washed twice in ice-cold distilled water, and incubated on ice for 30 min to minimize glucose-stimulated Pma1p activity. Cells were resuspended in homogenising medium (50 mM Tris pH 7.5, 2 mM EDTA and 1 mM phenylmethylsulfonyl fluoride) and disrupted using a Braun Homogeniser. Cell debris and unbroken cells were removed by centrifuging at 2,000×g at 4° C. for 10 min. A crude membrane fraction was isolated from the cell-free supernatant by centrifuging at 30,000×g at 4° C. for 45 min. Plasma membranes were prepared by centrifugation of the supernatant obtained after selective precipitation of mitochondria at pH 5.2 as described previously (Goffeau, A. and Dufour, J. P., 1988). The plasma membranes were resuspended in 10 mM Tris pH 7.0, 0.5 mM EDTA and 20% [v/v] glycerol and stored at −80° C. Protein was determined using a micro-Bradford (Bio-Rad Laboratories, Hercules, Calif. [Bradford, M. M., 1976]) assay with gamma-globulin as standard. Nucleotide triphosphatase activity was measured by incubating the plasma membrane fractions (10 μg) at 30° C. in a final volume of 120 μl containing 6 mM NTP, 7 mM MgSO4 in 59 mM MES-Tris buffer pH 6.0-8.0. To eliminate possible contributions from nonspecific phosphatases, vacuolar, or mitochondrial ATPases, 0.2 mM ammonium molybdate, 50 mM KNO3 and 10 mM NaN3, respectively, were included in assays (Monk B C, et al, 1991). Other ATPase inhibitors (20 μM oligomycin, 20 μM aurovertin B or 100 μM vanadate were added to the reaction where indicated. After 30 min the reaction was stopped by adding 130 μl of a solution containing 1% (w/v) SDS, 0.6 M H2SO4, 1.2% (w/v) ammonium molybdate and 1.6% (w/v) ascorbic acid. Inorganic phosphate released from NTPs was measured at 750 nm after 10 min incubation at room temperature.

The test system of assay [5] is S. cerevisiae AD1-8u^− (CDR1−). Nature of the assay: Disk drug susceptibility assay, parental strain. Format: cell-based. The following applies: at the concentrations used; 30° C., 48 h. Here is the method:
as §1, §2

For assay [6], the system named is AD-ERG11 (Erg11p). Nature of the assay: Disk diffusion assay, AD-ERG11. Format: cell-based, S. cerevisiae. The note with it: AD-pABC as negative control, 30° C., 48 h. Here is the method:
as §3, §4

Assay [7] has as its system AD-BEN^R (Ben^Rp). Nature of the assay: Disk diffusion assay, AD-BEN^R. Format: cell-based, S. cerevisiae. The note with it: AD-pABC as negative control, 30° C., 48 h. Here is the method: as §3, §4

From patent publication US8728797B2, “Yeast membrane protein expression system and its application in drug screening” (priority 2001, dated 2014) come the findings set out here.

Regarding `C[C@@H]1[C@H](O)[C@@H](C)/C=C/C=C/C=C/C=C/C=C/C=C/C=C/[C@H](O[C@@H]2O[C@H](C)[C@@H](O)[C@H](N)[C@@H]2O)C[C@@H]2O[C@](O)(C[C@@H](O)C[C@@H](O)[C@H](O)CC[C@@H](O)C[C@@H](O)CC(=O)O[C@H]1C)C[C@H](O)[C@H]2C(=O)O` [amphotericin B], the “resistance of AD1002 relative to parental strain in disk assay” value in assay [1] (listed as Amphotericin B) is “toxicity in yeast was not modified”. The “resistance/sensitivity in disk diffusion assay” value (from here on “resistance/sensitivity”) in assay [2] and in assay [3] was “sensitivities” each time.
On to `CC[C@H]1O[C@]2(C)[C@H](OC(C)=O)[C@@]1(C)O[C@@H](/C=C/C=C/C=C/c1oc(=O)cc(OC)c1C)[C@@H]2O` [aurovertin B], for which the “sensitivity of AD1002 ATPase/NTPase activity to inhibitor” value in assay [4] (aurovertin B 20 μM) was “insensitive”.
`CCCCNC(=O)n1c(NC(=O)OC)nc2ccccc21` [benomyl]: the “sensitivity of parental strain AD1-8u^− in disk assay” value (from here on “sensitivity … in disk assay”) in assay [5] is listed as “resistant”.
`C/C=C/C/C=C/CCC(=O)[C@H]1O[C@H]1C(N)=O` [cerulenin]: the “resistance/sensitivity” value is “susceptible” in assay [6] and “resistant” in assay [7].
Turning to `C[C@@H]1C[C@@H]([C@H](O)CC2CC(=O)NC(=O)C2)C(=O)[C@@H](C)C1` [cycloheximide], the “resistance/sensitivity” value is “susceptible” in assay [6], “resistances” in assay [2], “resistant” in assay [7] and “resistances” in assay [3]. The “resistance of AD1002 relative to parental strain in disk assay” value in assay [1] is on record as “confers resistance to growth inhibition”.
Regarding `Nc1[nH]c(=O)ncc1F` [flucytosine], the “resistance/sensitivity” value in assay [6] was “susceptible”; in assay [2], “sensitivities”; in assay [7], “sensitive”; in assay [3], “sensitivities”.
Take `Clc1ccc(COC(Cn2ccnc2)c2ccc(Cl)cc2Cl)c(Cl)c1` (centres unmarked) [miconazole]: the “resistance/sensitivity” value in assay [6] is given as “some resistance”; in assay [2] it was “resistances”; in assay [7] it was “detectable resistance”; in assay [3] it was “resistances”.
On to `CN(C/C=C/c1ccccc1)Cc1cccc2ccccc12` [naftifine], for which the “resistance of AD1002 relative to parental strain in disk assay” value in assay [1] is reported as “cross-resistance”.
`CO[C@@H]1C[C@@H](C[C@H]2CC[C@H](C)[C@H]([C@@H](C)C(=O)O)O2)O[C@]2(O[C@](C)([C@H]3CC[C@@](C)([C@@H]4O[C@@H]([C@H]5O[C@@](O)(CO)[C@H](C)C[C@@H]5C)C[C@@H]4C)O3)C[C@H]2C)[C@@H]1C` [nigericin]: the “resistance of AD1002 relative to parental strain in disk assay” value in assay [1] was “confers resistance to growth inhibition”.
As for `C[C@@H]1[C@H](O)[C@@H](C)/C=C/C=C/CC/C=C/C=C/C=C/C=C/C(O[C@H]2O[C@H](C)[C@@H](O)[C@H](N)[C@@H]2O)CC2O[C@](O)(CC(O)C(O)CCC(O)CC(O)CC(O)CC(=O)O[C@H]1C)CC(O)C2C(=O)O` (some centres unmarked) [nystatin], the “resistance/sensitivity” value in assay [2] and in assay [3] was “sensitivities” in each case.
Turning to `CC[C@H]1/C=C/C=C/C[C@@H](C)[C@H](O)[C@@](C)(O)C(=O)[C@@H](C)[C@H](O)[C@@H](C)C(=O)[C@@H](C)[C@H](O)[C@@H](C)/C=C/C(=O)O[C@@H]2[C@H](C)[C@H](CC1)O[C@]1(CC[C@H](C)[C@H](C[C@@H](C)O)O1)[C@H]2C` [oligomycin], the “sensitivity … in disk assay” value in assay [5] is recorded as “resistant”.
Same read-out and setting: then `C=C[C@H]1C[N@@]2CC[C@H]1C[C@@H]2[C@@H](O)c1ccnc2ccc(OC)cc12` [quinidine], with “resistant”.
Consider `CC/C(=C(\c1ccccc1)c1ccc(OCCN(C)C)cc1)c1ccccc1` [tamoxifen], for which the “resistance of AD1002 relative to parental strain in disk assay” value in assay [1] is reported as “confers resistance to growth inhibition”.
On the same count and under the same terms, the entry for `CN1CCN(CCCN2c3ccccc3Sc3ccc(C(F)(F)F)cc32)CC1` [trifluoperazine] is “confers resistance to growth inhibition”.
Take `CC(C)[C@@H]1NC(=O)[C@H](C)OC(=O)[C@@H](C(C)C)NC(=O)[C@@H](C(C)C)OC(=O)[C@H](C(C)C)NC(=O)[C@H](C)OC(=O)[C@@H](C(C)C)NC(=O)[C@@H](C(C)C)OC(=O)[C@H](C(C)C)NC(=O)[C@H](C)OC(=O)[C@@H](C(C)C)NC(=O)[C@@H](C(C)C)OC1=O` [valinomycin]: the “sensitivity … in disk assay” value in assay [5] is given as “resistant”.
Turning to `[O]=[V]([O-])([O-])[O-]` [vanadate], in assay [4] (vanadate 100 μM), the “sensitivity of AD1002 ATPase/NTPase activity to inhibitor” value was “completely sensitive”.
As for `COc1ccc(CCN(C)CCCC(C#N)(c2ccc(OC)c(OC)c2)C(C)C)cc1OC` (centres unmarked) [verapamil], the “resistance of AD1002 relative to parental strain in disk assay” value in assay [1] is listed as “confers resistance to growth inhibition”.
In the case of rhodamine 6G, the “resistance/sensitivity” value was “susceptible” in assay [6], “resistances” in assay [2], “fully sensitive” in assay [7] and “resistances” in assay [3]. In addition, in assay [1], the “resistance of AD1002 relative to parental strain in disk assay” value is on record as “clear resistance”.
For rhodamine 123, the “resistance/sensitivity” value in assay [6] is on record as “susceptible”; in assay [2], “resistances”; in assay [7] it was “fully sensitive”; in assay [3], “resistances”. Besides, the “resistance of AD1002 relative to parental strain in disk assay” value in assay [1] is “clear resistance”.
